Experimental data published in US9802929B2, “Benzo five-membered nitrogen heterocyclic piperidine or piperazine derivatives and preparation methods and pharmaceutical compositions thereof” (Shenyang Haiwang Biotechnology Co., Ltd., priority 2012, dated 2017).

Experiments:
[1] = system: α1 receptors; assay: Antagonism of α receptor agonist (noradrenaline / phenylephrine) cumulative contraction of rabbit aorta, pA2; details: for PA2 value against Phenylephrine contraction: Phenylephrine cumulative contraction; for PA2 value against NA contraction: noradrenaline (NA) cumulative contraction
From the text: (§1) Cut the chest open quickly after stunning, strip out the descending aorta, then after removing the surrounding connective tissue and adipose tissue (if performed serotonin receptor antagonist experiments, endothelial cells should be removed using a smooth stainless steel bars), cut the vessels into 3-5 mm vascular ring, then pass the steel hook through the blood vessel ring, with one end is fixed to the vent hook and the other end connected to the tension transducer, then place the specimens into bath tube containing 20 mL of nutrient solution, and record tension change by tension transducer. Maintain tube temperature at 37±0.5° C., and pass bubbles (95% O2+5% CO2) into the solution as a speed of 1-2 bubbles/minute. Place an initial load of 1.5 g on the rings, and change nutrient every 20 minutes, then balance for 2 hours and start test after baseline readings are stabilized.
After the tension is stabilized, record a certain length of the curve, and add NA (10^−8-10^−4 mol/L) to the tube until a maximum response is achieved, and then record the curve. Then wash the specimen with K—H solution repeatedly, balance for 1 h, add compound II-36 (3×10^−7 mol/L), and 20 minutes later, add NA following a same procedure. Mark NA contraction as ordinate using maximum response as 100% base. […] The larger the PA2 value, the stronger the antagonist effect. It is calculated based on the values of the attached figures by software.
After the tension is stabilized, record a certain length of the curve, and add NA (10^−8-10^−4 mol/L) to the tube until a maximum response is achieved, and then record the curve. Then wash the specimens repeatedly with K—H solution, and refresh K—H solution every 20 minutes, and balance for 60 minutes to allow baseline values are stabilized; then add doxazosin (10^−7 mol/L) and after 15 minutes, add NA in the same way (10^−8-6×10^−5 mol/L). Mark NA contraction as ordinate using maximum response as 100% base. […] The PA2 value of positive control doxazosin is 7.52±0.04 against NA contraction of rabbit aorta.
(§2) After the tension is stabilized, record a certain length of the curve, and add NA (3×10^−7-6×10^−5 mol/L) to the tube until a maximum response is achieved, and then record the curve. Then wash the specimen with K—H solution repeatedly, balance for 1 h, add compound II-65 (3×10^−6 mol/L), and 20 minutes later, add NA (3×10^−7-3×10^−4 mol/L) following a same procedure. Mark NA contraction as ordinate using maximum response as 100% base. […] PA2 value of compound II-65 is 6.02±0.13 against NA contraction effect on rabbit aorta.
After above procedures, wash the specimen repeatedly with K—H solution, balance for 1 hour, add doxazosin (10^−7 mol/L), and add NA in the same way after 15 minutes. Mark NA contraction as ordinate using maximum response as 100% base. […] The PA2 value of positive control doxazosin is 7.16±0.24 against NA contraction of rabbit aorta.
as §2, with “Phenylephrine (10^−6-6×10^−3” for “NA (3×10^−7-6×10^−5”, “II-68 (3×10^−8” for “II-65 (3×10^−6”, “Phenylephrine” for “NA (3×10^−7-3×10^−4 mol/L)”, “Phenylephrine” for “NA”, “II-68” for “II-65”, “8.45±0.03” for “6.02±0.13”

[2] = system: In-Vitro Vascular Smooth Muscle of Rabbits; assay: Relaxant effect on in vitro rabbit vascular smooth muscle contraction induced by hyperkalemia solution; details: for EC50: Oryctolagus cuniculus; for relaxant effect against hyperkalemia solution contraction (in words): rabbit vascular smooth muscle
[3] = system: Kunming mice; assay: Bone marrow micronucleus test; details: mouse, in vivo
Description: After four days of continuous administration, perform bone marrow micronucleus test on the 5th day.
Positive contro, Cyclophosphamide 60 mg/kg/day; negative control, saline solution 0.1 ml/10 g/day. After four days of continuous administration, perform bone marrow micronucleus test on the 5th day.
The mice were sacrificed by cervical dislocation, and quickly stripped out of the femur and sternum;
blood and muscles were removed, epiphysis was cleaned; then sternum bone marrow was transfer with a hemostat squeeze onto clean slides with drops of calf serum or wash the femoral the marrow with fetal calf serum directly onto clean slides; after mixing, adjust slides well; then put the adjusted and aired slide into a staining jar filled with methanol, and allow to fix for 15 minutes; and then take it out and place in air until dry out; then, use freshly prepared Giemsa application solution (one sample of Giemsa stock solution and nine samples of phosphate buffer pH 6.8), stained for 10 minutes to wash away slide dye with small stream of water, and then observe under a microscope after it is dried.

[4] = system: SD rats; assay: Effect on blood pressure of urethane-anesthetized SD rats; assay type: in vivo; details: 4.0 mg/kg orally
Description: Four SD rats were anesthetized with urethane ([…]); after vital signs were stable, measure blood pressure through carotid artery cannulation. After blood pressure is stabilized, compound II-36 was administered orally (4.0 mg/kg, body weight), and blood pressure changes with time were recorded; study results are shown in Table 4, 5 and 6.

[5] = system: 5-HT2A receptors; assay: Antagonism of 5-HT cumulative contraction of rabbit aorta, pA2
From the text: as §1
After the tension is stabilized, record a certain length of the curve, and add 5-HT (10^−7-3×10^−4 mol/L) to the tube until a maximum response is achieved, and then record the curve. Then wash the specimen with K—H solution repeatedly, balance for 1.5 h, add compound II-36 (3×10^−6 mol/L), and 20 minutes later, add 5-HT following a same procedure. Mark 5-HT contraction as ordinate using maximum response as 100% base. […]

[6] = relaxation of rabbit aortic rings contracted by hyperkalemia solution (K+ 60 mmol/L)
[7] = time after administration 90, n = 4

Structure (SMILES)	PA2 value against Phenylephrine contraction [1]	PA2 value against NA contraction [1]	EC50 [2, 6] [µM]	relaxant effect against hyperkalemia solution contraction (in words) [2]	polychromatic erythrocytes with micronucleus ([3]; both, Kunming, 4 days)	bone marrow micronucleus test result [3]	hypotensive effect (in words) [4]	time until blood pressure recovered to the level before administration [4] [h]	mean arterial pressure (MAP) ([4]; time after administration 0, n = 4) [mmHg]	mean arterial pressure (MAP) ([4]; time after administration 15, n = 4) [mmHg]	mean arterial pressure (MAP) ([4]; time after administration 30, n = 4) [mmHg]	mean arterial pressure (MAP) ([4]; time after administration 60, n = 4) [mmHg]	Systolic blood pressure (SBP) [4, 7] [mmHg]	mean arterial pressure (MAP) [4, 7] [mmHg]	mean arterial pressure (MAP) ([4]; time after administration 120, n = 4) [mmHg]	mean arterial pressure (MAP) ([4]; time after administration 150, n = 4) [mmHg]	mean arterial pressure (MAP) ([4]; time after administration 180, n = 4) [mmHg]	mean arterial pressure (MAP) ([4]; time after administration 210, n = 4) [mmHg]	PA2 value against 5-HT contraction [5]	−logEC50 [2, 6]
FC(F)(F)c1cccc(N2CCN(CCCCn3cnc4ccccc43)CC2)c1 [Compound II-36, 1-(4-(4-(3-trifluoromethylphenyl)piperazin-1-yl)butyl)-1H-benzimidazole]	7.37±0.08	7.37±0.08	4.57	significant relaxant effect	2.0±0.333 ‰	negative	significant hypotensive effect	3.5	91.50	73.40	74.52	72.77	98.71	68.81	83.12	84.47	84.83	88.54		
FC(F)(F)c1cccc(N2CCN(CCCCn3nnc4ccccc43)CC2)c1 [Compound II-65, 1-(4-(4-(3-trifluoromethylphenyl)piperazin-1-yl)butyl)-1H-benzotriazole]		6.02±0.13		relatively significant relaxant effect															6.726±0.089	5.55 ± 0.03
c1ccc2c(c1)nnn2CCCCN1CCN(c2nsc3ccccc23)CC1 [Compound II-68, 3-(4-(4-(1H-benzotriazol-1-yl)butyl)piperazin-1-yl)benzisothiazole]	8.45±0.03		17																8.86±0.14	
